# Patent publication US11535643B2, “Macrolides with modified desosamine sugars and uses thereof” (President and Fellows of Harvard College, priority 2015, dated 2022)
# Experiments:
# Type in all cases: cell-based
# E. coli = assay: Broth dilution MIC determination (CLSI) against E. coli strains
# Description: (§1) Minimum inhibitory concentrations (MICs) for macrolides described herein have been determined for unique strains of S. aureus, S. pneumoniae, S. pyogenes, E. faecalis, E. coli, A. baumannii, K. pneumoniae, P. aeruginosa, and H. influenzae, including several multidrug-resistant strains, with a special focus on macrolide resistant mechanisms. Azithromycin and solithromycin were included as control compounds. CLSI standard procedures for broth dilution MIC determination were used. Data for exemplary compounds described herein is shown in Tables M1-M7 and in Tables N1-N4.
# E. faecalis = assay: Broth dilution MIC determination (CLSI) against E. faecalis strains
# Description: as §1
# A. baumannii = assay: Broth dilution MIC determination (CLSI) against A. baumannii strains
# Description: as §1
# P. aeruginosa = assay: Broth dilution MIC determination (CLSI) against P. aeruginosa strains
# Description: as §1
# S. pneumoniae = assay: Broth dilution MIC determination (CLSI) against S. pneumoniae strains
# Description: as §1
# S. aureus = assay: Broth dilution MIC determination (CLSI) against S. aureus strains
# Description: as §1
# K. pneumoniae = assay: Broth dilution MIC determination (CLSI) against K. pneumoniae strains
# Description: Minimum inhibitory concentrations (MICs) for macrolides described herein have been determined for unique strains of S. aureus, S. pneumoniae, S. pyogenes, E. faecalis, E. coli, A. baumannii, K. pneumoniae, P. aeruginosa, and H. influenzae, including several multidrug-resistant strains, with a special focus on macrolide resistant mechanisms. Azithromycin and solithromycin were included as control compounds. CLSI standard procedures for broth dilution MIC determination were used.
# S. pyogenes = assay: Broth dilution MIC determination (CLSI) against S. pyogenes strains
# Description: as §1
# [1] = E. coli ATCC25922, strain MP-4 (Table N2)
# [2] = E. coli ATCC25922:tolC, strain MP-9 (Table N2)
# [3] = E. coli clinical, strain MP541 (Table N2)
# [4] = E. coli clinical-cErm, strain MP532 (Table N2)
# [5] = E. faecalis ATCC29212, strain MP-24 (Table N2)
# [6] = E. faecalis van resistant, strain UNT-039 (Table N2)
# [7] = A. baumannii ATCC19606, strain MP-15 (Table N2)
# [8] = A. baumannii clinical, strain MP576 (Table N2)
# [9] = A. baumannii clinical, strain MP577 (Table N2)
# [10] = P. aeruginosa ATCC27853, strain MP-3 (Table N2)
# [11] = P. aeruginosa PAO1, strain MP-7 (Table N2)
# [12] = P. aeruginosa PAO1:mex, strain MP-8 (Table N2)
# [13] = S. pneumoniae ATCC49619, strain MP-21 (Table N2)
# [14] = S. pneumoniae mefA, strain MP-626 UNT-038 (Table N2)
# [15] = S. pneumoniae mefA, strain MP-627 UNT-039 (Table N2)
# [16] = S. aureus (MRSA) GISA USA600, strain MP-619 UNT-120 (Table N2)
# [17] = S. aureus (MRSA) ST-228 cErm, strain MP-513 (Table N2)
# [18] = S. aureus (MRSA) USA100, strain MP-618 UNT-096 (Table N2)
# [19] = S. aureus (MRSA) USA300, strain MP-549 (Table N2)
# [20] = S. aureus (MRSA) ermA phenotype, strain MP-620 UNT-146 (Table N2)
# [21] = S. aureus ATCC29213, strain MP-12 (Table N2)
# [22] = S. aureus ATCCBAA-977, strain MP-17 (Table N2)
# [23] = K pneumomae ATCC10031, strain MP-14 (Table N2)
# [24] = K. pneumoniae clinical, strain MP546 (Table N2)
# [25] = K. pneumoniae clinical, strain MP548 (Table N2)
# [26] = S. pyogenes ATCC19615, strain MP-19 (Table N2)
# [27] = S. pyogenes mac resistant, strain MP-625 UNT-014 (Table N2)
structure (smiles),measurement,setting,value
CCC1OC(=O)C(C)C(=O)C(C)C(OC2OC(C)CC(NCC#N)C2O)C(C)(OC)CC(C)CNC(C)C2N(CCCCn3cc(-c4cccc(N)c4)nn3)C(=O)OC12C (stereo not drawn) [FSM-120369],MIC E. coli ATCC25922,"E. coli; ATCC25922, Strain No. MP-4",>64 µg/mL
same,MIC E. coli ATCC25922:tolC,"E. coli; ATCC25922:tolC, Strain No. MP-9",>64 µg/mL
same,MIC E. coli clinical,"E. coli; clinical, Strain No. MP541",>64 µg/mL
same,MIC E. coli clinical-cErm,"E. coli; clinical-cErm, Strain No. MP532",>64 µg/mL
same,MIC E. faecalis ATCC29212,"E. faecalis; ATCC29212, Strain No. MP-24",4 µg/mL
same,MIC E. faecalis van resistant,"E. faecalis; van resistant, Strain No. UNT-039",>64 µg/mL
same,MIC A. baumannii ATCC19606,"A. baumannii; ATCC19606, Strain No. MP-15",>64 µg/mL
same,MIC A. baumannii clinical,A. baumannii; Strain No. MP576,>64 µg/mL
same,MIC A. baumannii clinical,A. baumannii; Strain No. MP577,>64 µg/mL
same,MIC P. aeruginosa ATCC27853,"P. aeruginosa; ATCC27853, Strain No. MP-3",>64 µg/mL
same,MIC P. aeruginosa PAO1,"P. aeruginosa; PAO1, Strain No. MP-7",>64 µg/mL
same,MIC P. aeruginosa PAO1:mex,"P. aeruginosa; PAO1:mex, Strain No. MP-8",>64 µg/mL
same,MIC S. pneumoniae ATCC49619,"S. pneumoniae; ATCC49619, Strain No. MP-21",0.5 µg/mL
same,MIC S. pneumoniae mefA,S. pneumoniae; Strain No. MP-626 UNT-038,0.25 µg/mL
same,MIC S. pneumoniae mefA,S. pneumoniae; Strain No. MP-627 UNT-039,0.25 µg/mL
same,MIC S. aureus ATCC29213,"S. aureus; ATCC29213, Strain No. MP-12",32 µg/mL
same,MIC S. aureus ATCCBAA-977,"S. aureus; ATCCBAA-977, Strain No. MP-17",32 µg/mL
same,MIC S. aureus (MRSA) GISA USA600,"S. aureus; GISA USA600, Strain No. MP-619 UNT-120",>64 µg/mL
same,MIC S. aureus (MRSA) ST-228 cErm,"S. aureus; ST-228 cErm, Strain No. MP-513",>64 µg/mL
same,MIC S. aureus (MRSA) USA100,"S. aureus; USA100, Strain No. MP-618 UNT-096",>64 µg/mL
same,MIC S. aureus (MRSA) USA300,"S. aureus; USA300, Strain No. MP-549",32 µg/mL
same,MIC S. aureus (MRSA) ermA phenotype,"S. aureus; ermA phenotype, Strain No. MP-620 UNT-146",>64 µg/mL
same,MIC K. pneumoniae ATCC10031,"K. pneumoniae; ATCC10031, Strain No. MP-14",16 µg/mL
same,MIC K. pneumoniae clinical,K. pneumoniae; Strain No. MP546,>64 µg/mL
same,MIC K. pneumoniae clinical,K. pneumoniae; Strain No. MP548,>64 µg/mL
same,MIC S. pyogenes ATCC19615,"S. pyogenes; ATCC19615, Strain No. MP-19",0.5 µg/mL
same,MIC S. pyogenes mac resistant,"S. pyogenes; mac resistant, Strain No. MP-625 UNT-014",2 µg/mL
CCC1OC(=O)C(C)C(=O)C(C)C(OC2OC(C)CC(N(C)CC#N)C2O)C(C)(OC)CC(C)CNC(C)C2N(CCCCn3cc(-c4cccc(N)c4)nn3)C(=O)OC12C (stereo not drawn) [FSM-120371],MIC,E. coli; [1],64 µg/mL
same,MIC,E. coli; [2],16 µg/mL
same,MIC,E. coli; [3],64 µg/mL
same,MIC,E. coli; [4],>64 µg/mL
same,MIC,E. faecalis; [5],4 µg/mL
same,MIC,E. faecalis; [6],64 µg/mL
same,MIC,A. baumannii; [7],32 µg/mL
same,MIC,A. baumannii; [8],>64 µg/mL
same,MIC,A. baumannii; [9],>64 µg/mL
same,MIC,P. aeruginosa; [10],>64 µg/mL
same,MIC,P. aeruginosa; [11],>64 µg/mL
same,MIC,P. aeruginosa; [12],32 µg/mL
same,MIC,S. pneumoniae; [13],0.25 µg/mL
same,MIC,S. pneumoniae; [14],0.25 µg/mL
same,MIC,S. pneumoniae; [15],0.5 µg/mL
same,MIC,S. aureus; [16],>64 µg/mL
same,MIC,S. aureus; [17],>64 µg/mL
same,MIC,S. aureus; [18],>64 µg/mL
same,MIC,S. aureus; [19],64 µg/mL
same,MIC,S. aureus; [20],>64 µg/mL
same,MIC,S. aureus; [21],32 µg/mL
same,MIC,S. aureus; [22],32 µg/mL
same,MIC,K. pneumoniae; [23],8 µg/mL
same,MIC,K. pneumoniae; [24],>64 µg/mL
same,MIC,K. pneumoniae; [25],>64 µg/mL
same,MIC,S. pyogenes; [26],0.125 µg/mL
same,MIC,S. pyogenes; [27],1 µg/mL
CCC1OC(=O)C(C)C(=O)C(C)C(OC2OC(C)CC(N(CCO)CCO)C2O)C(C)(OC)CC(C)CNC(C)C2N(CCCCn3cc(-c4cccc(N)c4)nn3)C(=O)OC12C (stereo not drawn) [FSM-120379],MIC,E. coli; [1],>64 µg/mL
same,MIC,E. coli; [2],32 µg/mL
same,MIC,E. coli; [3],>64 µg/mL
same,MIC,E. coli; [4],>64 µg/mL
same,MIC,E. faecalis; [5],32 µg/mL
same,MIC,E. faecalis; [6],>64 µg/mL
same,MIC,A. baumannii; [7],>64 µg/mL
same,MIC,A. baumannii; [8],>64 µg/mL
same,MIC,A. baumannii; [9],>64 µg/mL
same,MIC,P. aeruginosa; [10],>64 µg/mL
same,MIC,P. aeruginosa; [11],>64 µg/mL
same,MIC,P. aeruginosa; [12],>64 µg/mL
same,MIC,S. pneumoniae; [13],2 µg/mL
same,MIC,S. pneumoniae; [14],1 µg/mL
same,MIC,S. pneumoniae; [15],1 µg/mL
same,MIC,S. aureus; [16],>64 µg/mL
same,MIC,S. aureus; [17],>64 µg/mL
same,MIC,S. aureus; [18],>64 µg/mL
same,MIC,S. aureus; [19],>64 µg/mL
same,MIC,S. aureus; [20],>64 µg/mL
same,MIC,S. aureus; [21],>64 µg/mL
same,MIC,S. aureus; [22],>64 µg/mL
same,MIC,K. pneumoniae; [23],32 µg/mL
same,MIC,K. pneumoniae; [24],>64 µg/mL
same,MIC,K. pneumoniae; [25],>64 µg/mL
same,MIC,S. pyogenes; [26],4 µg/mL
same,MIC,S. pyogenes; [27],16 µg/mL
CCC1OC(=O)C(C)C(=O)C(C)C(OC2OC(C)CC(N3CCOC3CO)C2O)C(C)(OC)CC(C)CNC(C)C2N(CCCCn3cc(-c4cccc(N)c4)nn3)C(=O)OC12C (stereo not drawn) [FSM-120380],MIC,E. coli; [1],>64 µg/mL
same,MIC,E. coli; [2],32 µg/mL
same,MIC,E. coli; [3],>64 µg/mL
same,MIC,E. coli; [4],>64 µg/mL
same,MIC,E. faecalis; [5],64 µg/mL
same,MIC,E. faecalis; [6],>64 µg/mL
same,MIC,A. baumannii; [7],>64 µg/mL
same,MIC,A. baumannii; [8],>64 µg/mL
same,MIC,A. baumannii; [9],>64 µg/mL
same,MIC,P. aeruginosa; [10],>64 µg/mL
same,MIC,P. aeruginosa; [11],>64 µg/mL
same,MIC,P. aeruginosa; [12],>64 µg/mL
same,MIC,S. pneumoniae; [13],8 µg/mL
same,MIC,S. pneumoniae; [14],4 µg/mL
same,MIC,S. pneumoniae; [15],4 µg/mL
same,MIC,S. aureus; [16],>64 µg/mL
same,MIC,S. aureus; [17],>64 µg/mL
same,MIC,S. aureus; [18],>64 µg/mL
same,MIC,S. aureus; [19],>64 µg/mL
same,MIC,S. aureus; [20],>64 µg/mL
same,MIC,S. aureus; [21],>64 µg/mL
same,MIC,S. aureus; [22],>64 µg/mL
same,MIC,K. pneumoniae; [23],>64 µg/mL
same,MIC,K. pneumoniae; [24],>64 µg/mL
same,MIC,K. pneumoniae; [25],>64 µg/mL
same,MIC,S. pyogenes; [26],8 µg/mL
same,MIC,S. pyogenes; [27],32 µg/mL
